For one test, the target named is T1, GPR6 (Homo sapiens, UniProt P46095).
T1 construct: expressed in transfected cells; host or cells: CHO cells
The test can be described thus: GPR6 antagonist functional cAMP assay (LANCE Ultra cAMP TR-FRET, CHO cells stably expressing GPR6). Type of test: cell-based. The method in brief: (§1)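 Stable CHO-GPR6 or CHO-GPR3 cells (10,000/well) in Krebs-Ringer buffer with 0.1% BSA and 150 μM Ro 20-1724 were exposed to compounds for 45 min at 37° C (0.1% DMSO). cAMP read by LANCE Ultra TR-FRET; IC50 from 4-parameter fit normalized to DMSO and reference compounds.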
On the technique in general: Cyclic AMP is a second messenger, typically raised through Gs and lowered through Gi signalling.

Another test addresses T2, GPR3 (Homo sapiens, UniProt P46089).
T2 construct: expressed in transfected cells; host or cells: CHO cells
The test can be described thus: GPR3 antagonist functional cAMP assay (LANCE Ultra cAMP TR-FRET, CHO cells stably expressing GPR3). Type of test: cell-based. The gist of the method:
as §1

Setting [1] is: CHO cells stably expressing GPR6, cAMP assay (Example 24).
Setting [2] is: CHO cells stably expressing GPR3, cAMP assay (Example 24).
The mark [3] stands for this setting: procedure as described in Example 24.

Bounds are passed on as bounds.

The source of these data is patent publication US20260042755A1, “GPR6 INVERSE AGONISTS” (MapLight Therapeutics, Inc., priority 2022, published 2026).

T2 sequence (P46089 whole entry, species assumed): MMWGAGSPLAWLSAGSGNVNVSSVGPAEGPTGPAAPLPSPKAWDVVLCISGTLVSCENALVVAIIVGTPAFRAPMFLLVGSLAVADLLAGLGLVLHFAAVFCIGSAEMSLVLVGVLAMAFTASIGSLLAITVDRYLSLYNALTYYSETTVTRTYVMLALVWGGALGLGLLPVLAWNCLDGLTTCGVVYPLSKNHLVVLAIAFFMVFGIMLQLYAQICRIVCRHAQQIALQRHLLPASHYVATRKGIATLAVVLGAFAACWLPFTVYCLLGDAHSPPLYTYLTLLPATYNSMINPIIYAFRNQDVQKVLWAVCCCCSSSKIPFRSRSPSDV
T1 sequence (P46095 whole entry): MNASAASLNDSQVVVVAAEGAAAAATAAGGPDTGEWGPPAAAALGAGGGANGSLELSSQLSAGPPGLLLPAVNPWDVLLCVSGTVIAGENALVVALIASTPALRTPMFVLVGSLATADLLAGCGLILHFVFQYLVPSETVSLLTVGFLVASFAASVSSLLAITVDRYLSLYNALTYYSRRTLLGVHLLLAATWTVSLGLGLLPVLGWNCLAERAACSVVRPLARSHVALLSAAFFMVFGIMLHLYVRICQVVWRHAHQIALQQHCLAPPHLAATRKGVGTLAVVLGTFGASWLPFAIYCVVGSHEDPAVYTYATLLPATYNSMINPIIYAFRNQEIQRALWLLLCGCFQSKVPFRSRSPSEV

For `CC(=O)N1CCc2nc(N3CCC(Oc4ccc(F)cc4F)CC3)c(-c3cnn(C4CN(C)C4)c3)nc2C1` [Compound 212, 1-{2-[4-(2,4-difluorophenoxy)piperidin-1-yl]-3-[1-(1-methylazetidin-3-yl)-1H-pyrazol-4-yl]-5H,6H,7H,8H-pyrido[3,4-b]pyrazin-6-yl}ethan-1-one], the IC50 on GPR6 (setting [1]) and against GPR3 (setting [2]) was 1000 to 30000 nM throughout.
Turning to `CC(C)(O)[C@@](C)(O)c1cc2nc(-c3cnn(CF)c3)c(N3CCN(Cc4ccc(F)cc4F)CC3)nc2cn1` (single isomer, unassigned) [Compound 711], the IC50 against GPR6 (procedure of Example 24) lay in the range of 100 to 1000 nM; against GPR3 (procedure of Example 24), 1000 to 30000 nM.
`CC(=O)N1CCc2nc(N3CCC(COc4ccccc4)C3)c(-c3cnn(C)c3)nc2C1` (stereo not drawn) [Compound 363, 1-[3-(1-methyl-1H-pyrazol-4-yl)-2-[3-(phenoxymethyl)pyrrolidin-1-yl]-5H,6H,7H,8H-pyrido[3,4-b]pyrazin-6-yl]ethan-1-one]: the IC50 on GPR6 (procedure of Example 24) and against GPR3 (procedure of Example 24) was 1000 to 30000 nM each time.
Regarding `CNC(=O)N1CCc2nc(N3CCC(Oc4ccc(F)cc4F)CC3)c(-c3cn[nH]c3)nc2C1` [Compound 180, 2-[4-(2,4-difluorophenoxy)piperidin-1-yl]-N-methyl-3-(1H-pyrazol-4-yl)-5H,6H,7H,8H-pyrido[3,4-b]pyrazine-6-carboxamide], the IC50 at GPR6 (setting [1]) and against GPR3 (setting [2]) was 1000 to 30000 nM throughout.
On to `CC(C)(O)C(O)c1cc2nc(-c3cnn(C(F)F)c3)c(N3CCC(=Cc4ccc(F)cc4F)CC3)nc2cn1` (single isomer, unassigned) [Compound 766], for which the IC50 against GPR6 (procedure of Example 24) is 100 to 1000 nM; on GPR3 (procedure of Example 24), 1000 to 30000 nM.
In the case of `CC(=O)N1CCc2nc(N3CCC(Cn4ccccc4=O)CC3)c(-c3cnn(C)c3)nc2C1` [Compound 522, 1-({1-[6-acetyl-3-(1-methyl-4-pyrazolyl)-5,6,7,8-tetrahydro-1,4,6-triaza-2-naphthyl]-4-piperidyl}methyl)-2(1H)-pyridinone], the IC50 at GPR6 (CHO cells stably expressing GPR6, cAMP assay) lay within 1000 to 30000 nM; against GPR3 (CHO cells stably expressing GPR3, cAMP assay) it was 1000 to 30000 nM.
As for `CC(=O)N1CCc2nc(C3CCC(Oc4ccc(F)cc4F)CC3)c(-c3ncco3)nc2C1` (stereo not drawn) [Compound 302, 1-{2-[4-(2,4-difluorophenoxy)cyclohexyl]-3-(1,3-oxazol-2-yl)-5H,6H,7H,8H-pyrido[3,4-b]pyrazin-6-yl}ethan-1-one], the 50% inhibitory concentration (IC50) against GPR6 (procedure of Example 24) and against GPR3 (procedure of Example 24) was 1000 to 30000 nM in each case.
For the molecule `CC(=O)N1CCc2nc(N3CCC(Oc4ccc(F)cc4F)CC3)c(-c3cnn(CC(F)F)c3)nc2C1` [Compound 3, 1-{3-[1-(2,2-difluoroethyl)-1H-pyrazol-4-yl]-2-[4-(2,4-difluorophenoxy)piperidin-1-yl]-5H,6H,7H,8H-pyrido[3,4-b]pyrazin-6-yl}ethan-1-one], the results for the IC50 at GPR6 (setting [3]) and against GPR3 (setting [3]) were 100 to 1000 nM and 1000 to 30000 nM, respectively.
Regarding `COC(C)(C)C(=O)N1CCc2nc(N3CCC(Oc4ccc(F)cc4F)CC3)c(-c3cn[nH]c3)nc2C1` [Compound 174, 1-{2-[4-(2,4-difluorophenoxy)piperidin-1-yl]-3-(1H-pyrazol-4-yl)-5H,6H,7H,8H-pyrido[3,4-b]pyrazin-6-yl}-2-methoxy-2-methylpropan-1-one], the values for the IC50 on GPR6 (setting [1]) and against GPR3 (setting [2]) were 100 to 1000 nM and 1000 to 30000 nM, respectively.
In the case of `Cn1cc(-c2nc3c(nc2N2CC[C@H](Oc4ccc(F)cc4F)[C@H](F)C2)CCN(Cc2ccccc2)C3)cn1` (single isomer, unassigned) [Compound 333], the figures for the IC50 at GPR6 (procedure of Example 24) and at GPR3 (procedure of Example 24) were 1000 to 30000 nM and at least 30000 nM, respectively.
In the case of `CC(=O)N1CCc2nc(N3CCC(Oc4ccc(F)cc4F)CC3)c(-c3cccc(N4CCCC4)n3)nc2C1` [Compound 101, 1-{2-[4-(2,4-difluorophenoxy)piperidin-1-yl]-3-[6-(pyrrolidin-1-yl)pyridin-2-yl]-5H,6H,7H,8H-pyrido[3,4-b]pyrazin-6-yl}ethan-1-one], the IC50 at GPR6 (setting [1]) and against GPR3 (setting [2]) was 1000 to 30000 nM in each case.
`Cn1cc(-c2nc3cc(C(C)(O)CO)ncc3nc2N2CCC(Oc3ccc(F)cc3F)CC2)cn1` (single isomer, unassigned) [Compound 692]: the IC50 against GPR6 (procedure of Example 24) is 100 to 1000 nM; against GPR3 (procedure of Example 24), 1000 to 30000 nM.

A word on the IC50: it is the concentration that gives 50% inhibition. A high value points to lower potency.
